From BindingDB's records for patent US20250268873 (XRAD Therapeutics, 2025)

What was measured:
[1] = target: DNA-dependent protein kinase catalytic subunit (Homo sapiens, UniProt P78527); assay: DNA-PK Enzyme-Linked Immunosorbent Assay
Description: On day one, a 96-well plate (ThermoFisher, Cat #: 442404) was coated with GST-p53 (1-101) peptide (purified by Pharmaron, BCS department) by diluting 3 μg of GST-p53 in each well with 0.1 M Na2CO3/NaHCO3 (pH 9.6). The plate was incubated overnight at 4° C. On the second day, the coating buffer was removed, and the plate was washed twice with PBST (1×PBS containing 0.1% Tween-20). The DNA-PK enzyme solution (Invitrogen, #PR9107A; the final DNA-PK concentration: 0.1 μg/mL) was then added. The compounds were serially diluted to the final maximal concentration of 100 nM (3 fold series dilution, a total of 10 doses), and an ATP solution (the final ATP concentration: 20 μM) was added to the plate. Incubate the plate at 25° C. for 1 hour. The plate was washed three times with PBST (1×PBS containing 0.1% Tween-20) and blocked with a solution of PBST and 1% BSA at 4° C. overnight. The third day, the plate was washed four times with PBST (1×PBS containing 0.1% Tween-20). Anti-phospho-p53 primary antibody (cell signaling Technology, #9286, Phospho-p53 (Ser15) (16G8) Mouse mAb) (1/1000) was added to each well. The plate was sealed, incubated 1 h at 37° C., and washed four times with PBST (1×PBS containing 0.1% Tween-20). An HRP-linked secondary antibody (Cell signaling Technology, #7076, Anti-mouse IgG, HRP-linked Antibody) (1/1000) (100 μL) was added to each well. […]

[2] = target: Phosphatidylinositol 4,5-bisphosphate 3-kinase catalytic subunit alpha isoform (Homo sapiens, UniProt P42336); assay: PI3Kα and PI3Kδ Biochemical Assay
Description: (§1) PI3Kα and PI3Kδ Kinase reactions were performed in a 5 μL volume in low-volume 384-well plates. Typically, PerkinElmer model 6008280 plates were used. The 1× kinase reaction buffer consisted of 50 mM HEPES pH 7.5, 3 mM MgCl2, 0.03% CHAPS, 1 mM EGTA, 100 mM NaCl, and 2 mM DTT. PI3Kα (ThermoFisher, #PV4788; the final PI3Kα concentration: 120 ng/mL) or PI3Kδ enzyme solution (ThermoFisher, #PV6451; the final PI3Kδ concentration: 250 ng/mL) was added to the plate, compounds were serially diluted to the final maximal concentration of 100 nM (3 fold series dilution, a total of 10 doses), and the PIP2:3PS (the final concentration: 10 μg/mL) and ATP solution (the final ATP concentration: 10 μM) was added to the 384-well plate. The plate was incubated at 25° C. for 1 hour. ADP-Glo reagent buffer (5 μL) was added to each well. The plate was sealed and incubated for 40 min at 25° C. ADP-Glo detection buffer (10 μL) was added to each well, and the plate was incubated for 40 min at 25° C. and read on a plate reader configured for Luminescence.

[3] = target: T1, Phosphatidylinositol 4,5-bisphosphate 3-kinase catalytic subunit delta isoform (Homo sapiens, UniProt O00329); assay: PI3Kα and PI3Kδ Biochemical Assay
T1 sequence (O00329 whole entry): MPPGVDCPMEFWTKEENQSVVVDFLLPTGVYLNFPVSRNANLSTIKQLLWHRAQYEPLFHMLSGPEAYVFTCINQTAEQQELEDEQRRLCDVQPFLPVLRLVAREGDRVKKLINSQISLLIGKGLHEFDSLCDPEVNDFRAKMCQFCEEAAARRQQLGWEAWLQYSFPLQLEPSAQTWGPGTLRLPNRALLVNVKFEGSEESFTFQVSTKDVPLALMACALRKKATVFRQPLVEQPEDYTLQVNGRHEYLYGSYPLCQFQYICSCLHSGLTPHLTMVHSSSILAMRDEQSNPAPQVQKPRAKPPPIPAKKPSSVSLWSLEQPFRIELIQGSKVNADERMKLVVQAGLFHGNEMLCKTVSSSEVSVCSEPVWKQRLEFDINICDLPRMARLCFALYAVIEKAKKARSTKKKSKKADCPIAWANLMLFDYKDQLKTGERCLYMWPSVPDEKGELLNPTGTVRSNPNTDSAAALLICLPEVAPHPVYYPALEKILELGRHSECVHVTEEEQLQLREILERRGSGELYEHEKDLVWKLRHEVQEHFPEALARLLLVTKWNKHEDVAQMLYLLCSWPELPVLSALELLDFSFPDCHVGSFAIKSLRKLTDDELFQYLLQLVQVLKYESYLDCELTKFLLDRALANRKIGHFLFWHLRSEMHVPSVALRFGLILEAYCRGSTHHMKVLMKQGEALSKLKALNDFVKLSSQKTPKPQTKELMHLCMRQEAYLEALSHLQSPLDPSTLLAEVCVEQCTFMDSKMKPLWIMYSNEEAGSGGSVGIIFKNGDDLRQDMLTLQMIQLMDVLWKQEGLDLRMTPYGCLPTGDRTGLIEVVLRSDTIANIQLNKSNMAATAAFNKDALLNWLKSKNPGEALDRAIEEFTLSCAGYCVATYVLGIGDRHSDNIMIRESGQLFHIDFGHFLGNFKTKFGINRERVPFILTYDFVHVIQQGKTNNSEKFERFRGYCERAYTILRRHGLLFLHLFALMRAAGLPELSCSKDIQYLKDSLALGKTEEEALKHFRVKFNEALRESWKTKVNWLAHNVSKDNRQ
Description: as §1

Chain of Phosphatidylinositol 4,5-bisphosphate 3-kinase catalytic subunit alpha isoform (P42336 whole entry, canonical isoform): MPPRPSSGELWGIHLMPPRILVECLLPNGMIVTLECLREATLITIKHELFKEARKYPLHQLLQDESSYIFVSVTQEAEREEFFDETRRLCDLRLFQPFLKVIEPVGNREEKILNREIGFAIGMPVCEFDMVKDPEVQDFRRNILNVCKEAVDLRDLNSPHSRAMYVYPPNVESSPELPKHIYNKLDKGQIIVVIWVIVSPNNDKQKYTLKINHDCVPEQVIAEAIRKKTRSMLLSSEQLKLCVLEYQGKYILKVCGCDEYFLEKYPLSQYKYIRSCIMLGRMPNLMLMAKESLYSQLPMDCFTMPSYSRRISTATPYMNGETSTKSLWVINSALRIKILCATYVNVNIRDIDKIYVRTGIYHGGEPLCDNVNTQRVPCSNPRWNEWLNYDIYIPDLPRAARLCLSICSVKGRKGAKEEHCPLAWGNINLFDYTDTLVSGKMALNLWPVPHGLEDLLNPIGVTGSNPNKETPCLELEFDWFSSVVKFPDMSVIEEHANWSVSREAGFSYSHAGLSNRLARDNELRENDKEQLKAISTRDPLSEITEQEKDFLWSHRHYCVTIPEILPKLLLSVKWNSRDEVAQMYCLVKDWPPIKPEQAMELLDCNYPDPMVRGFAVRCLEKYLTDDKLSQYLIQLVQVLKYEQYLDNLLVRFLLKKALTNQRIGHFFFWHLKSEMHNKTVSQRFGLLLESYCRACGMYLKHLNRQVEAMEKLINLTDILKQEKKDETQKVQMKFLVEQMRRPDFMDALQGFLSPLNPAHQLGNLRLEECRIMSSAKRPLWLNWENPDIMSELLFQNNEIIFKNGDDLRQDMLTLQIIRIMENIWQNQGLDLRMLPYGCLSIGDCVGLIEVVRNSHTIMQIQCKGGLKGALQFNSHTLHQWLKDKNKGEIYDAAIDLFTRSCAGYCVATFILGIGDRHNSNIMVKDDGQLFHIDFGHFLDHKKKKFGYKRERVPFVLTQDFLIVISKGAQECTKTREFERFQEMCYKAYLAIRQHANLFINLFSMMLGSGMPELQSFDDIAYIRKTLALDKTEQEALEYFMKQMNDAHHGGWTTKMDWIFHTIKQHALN
Chain of DNA-dependent protein kinase catalytic subunit (P78527 whole entry): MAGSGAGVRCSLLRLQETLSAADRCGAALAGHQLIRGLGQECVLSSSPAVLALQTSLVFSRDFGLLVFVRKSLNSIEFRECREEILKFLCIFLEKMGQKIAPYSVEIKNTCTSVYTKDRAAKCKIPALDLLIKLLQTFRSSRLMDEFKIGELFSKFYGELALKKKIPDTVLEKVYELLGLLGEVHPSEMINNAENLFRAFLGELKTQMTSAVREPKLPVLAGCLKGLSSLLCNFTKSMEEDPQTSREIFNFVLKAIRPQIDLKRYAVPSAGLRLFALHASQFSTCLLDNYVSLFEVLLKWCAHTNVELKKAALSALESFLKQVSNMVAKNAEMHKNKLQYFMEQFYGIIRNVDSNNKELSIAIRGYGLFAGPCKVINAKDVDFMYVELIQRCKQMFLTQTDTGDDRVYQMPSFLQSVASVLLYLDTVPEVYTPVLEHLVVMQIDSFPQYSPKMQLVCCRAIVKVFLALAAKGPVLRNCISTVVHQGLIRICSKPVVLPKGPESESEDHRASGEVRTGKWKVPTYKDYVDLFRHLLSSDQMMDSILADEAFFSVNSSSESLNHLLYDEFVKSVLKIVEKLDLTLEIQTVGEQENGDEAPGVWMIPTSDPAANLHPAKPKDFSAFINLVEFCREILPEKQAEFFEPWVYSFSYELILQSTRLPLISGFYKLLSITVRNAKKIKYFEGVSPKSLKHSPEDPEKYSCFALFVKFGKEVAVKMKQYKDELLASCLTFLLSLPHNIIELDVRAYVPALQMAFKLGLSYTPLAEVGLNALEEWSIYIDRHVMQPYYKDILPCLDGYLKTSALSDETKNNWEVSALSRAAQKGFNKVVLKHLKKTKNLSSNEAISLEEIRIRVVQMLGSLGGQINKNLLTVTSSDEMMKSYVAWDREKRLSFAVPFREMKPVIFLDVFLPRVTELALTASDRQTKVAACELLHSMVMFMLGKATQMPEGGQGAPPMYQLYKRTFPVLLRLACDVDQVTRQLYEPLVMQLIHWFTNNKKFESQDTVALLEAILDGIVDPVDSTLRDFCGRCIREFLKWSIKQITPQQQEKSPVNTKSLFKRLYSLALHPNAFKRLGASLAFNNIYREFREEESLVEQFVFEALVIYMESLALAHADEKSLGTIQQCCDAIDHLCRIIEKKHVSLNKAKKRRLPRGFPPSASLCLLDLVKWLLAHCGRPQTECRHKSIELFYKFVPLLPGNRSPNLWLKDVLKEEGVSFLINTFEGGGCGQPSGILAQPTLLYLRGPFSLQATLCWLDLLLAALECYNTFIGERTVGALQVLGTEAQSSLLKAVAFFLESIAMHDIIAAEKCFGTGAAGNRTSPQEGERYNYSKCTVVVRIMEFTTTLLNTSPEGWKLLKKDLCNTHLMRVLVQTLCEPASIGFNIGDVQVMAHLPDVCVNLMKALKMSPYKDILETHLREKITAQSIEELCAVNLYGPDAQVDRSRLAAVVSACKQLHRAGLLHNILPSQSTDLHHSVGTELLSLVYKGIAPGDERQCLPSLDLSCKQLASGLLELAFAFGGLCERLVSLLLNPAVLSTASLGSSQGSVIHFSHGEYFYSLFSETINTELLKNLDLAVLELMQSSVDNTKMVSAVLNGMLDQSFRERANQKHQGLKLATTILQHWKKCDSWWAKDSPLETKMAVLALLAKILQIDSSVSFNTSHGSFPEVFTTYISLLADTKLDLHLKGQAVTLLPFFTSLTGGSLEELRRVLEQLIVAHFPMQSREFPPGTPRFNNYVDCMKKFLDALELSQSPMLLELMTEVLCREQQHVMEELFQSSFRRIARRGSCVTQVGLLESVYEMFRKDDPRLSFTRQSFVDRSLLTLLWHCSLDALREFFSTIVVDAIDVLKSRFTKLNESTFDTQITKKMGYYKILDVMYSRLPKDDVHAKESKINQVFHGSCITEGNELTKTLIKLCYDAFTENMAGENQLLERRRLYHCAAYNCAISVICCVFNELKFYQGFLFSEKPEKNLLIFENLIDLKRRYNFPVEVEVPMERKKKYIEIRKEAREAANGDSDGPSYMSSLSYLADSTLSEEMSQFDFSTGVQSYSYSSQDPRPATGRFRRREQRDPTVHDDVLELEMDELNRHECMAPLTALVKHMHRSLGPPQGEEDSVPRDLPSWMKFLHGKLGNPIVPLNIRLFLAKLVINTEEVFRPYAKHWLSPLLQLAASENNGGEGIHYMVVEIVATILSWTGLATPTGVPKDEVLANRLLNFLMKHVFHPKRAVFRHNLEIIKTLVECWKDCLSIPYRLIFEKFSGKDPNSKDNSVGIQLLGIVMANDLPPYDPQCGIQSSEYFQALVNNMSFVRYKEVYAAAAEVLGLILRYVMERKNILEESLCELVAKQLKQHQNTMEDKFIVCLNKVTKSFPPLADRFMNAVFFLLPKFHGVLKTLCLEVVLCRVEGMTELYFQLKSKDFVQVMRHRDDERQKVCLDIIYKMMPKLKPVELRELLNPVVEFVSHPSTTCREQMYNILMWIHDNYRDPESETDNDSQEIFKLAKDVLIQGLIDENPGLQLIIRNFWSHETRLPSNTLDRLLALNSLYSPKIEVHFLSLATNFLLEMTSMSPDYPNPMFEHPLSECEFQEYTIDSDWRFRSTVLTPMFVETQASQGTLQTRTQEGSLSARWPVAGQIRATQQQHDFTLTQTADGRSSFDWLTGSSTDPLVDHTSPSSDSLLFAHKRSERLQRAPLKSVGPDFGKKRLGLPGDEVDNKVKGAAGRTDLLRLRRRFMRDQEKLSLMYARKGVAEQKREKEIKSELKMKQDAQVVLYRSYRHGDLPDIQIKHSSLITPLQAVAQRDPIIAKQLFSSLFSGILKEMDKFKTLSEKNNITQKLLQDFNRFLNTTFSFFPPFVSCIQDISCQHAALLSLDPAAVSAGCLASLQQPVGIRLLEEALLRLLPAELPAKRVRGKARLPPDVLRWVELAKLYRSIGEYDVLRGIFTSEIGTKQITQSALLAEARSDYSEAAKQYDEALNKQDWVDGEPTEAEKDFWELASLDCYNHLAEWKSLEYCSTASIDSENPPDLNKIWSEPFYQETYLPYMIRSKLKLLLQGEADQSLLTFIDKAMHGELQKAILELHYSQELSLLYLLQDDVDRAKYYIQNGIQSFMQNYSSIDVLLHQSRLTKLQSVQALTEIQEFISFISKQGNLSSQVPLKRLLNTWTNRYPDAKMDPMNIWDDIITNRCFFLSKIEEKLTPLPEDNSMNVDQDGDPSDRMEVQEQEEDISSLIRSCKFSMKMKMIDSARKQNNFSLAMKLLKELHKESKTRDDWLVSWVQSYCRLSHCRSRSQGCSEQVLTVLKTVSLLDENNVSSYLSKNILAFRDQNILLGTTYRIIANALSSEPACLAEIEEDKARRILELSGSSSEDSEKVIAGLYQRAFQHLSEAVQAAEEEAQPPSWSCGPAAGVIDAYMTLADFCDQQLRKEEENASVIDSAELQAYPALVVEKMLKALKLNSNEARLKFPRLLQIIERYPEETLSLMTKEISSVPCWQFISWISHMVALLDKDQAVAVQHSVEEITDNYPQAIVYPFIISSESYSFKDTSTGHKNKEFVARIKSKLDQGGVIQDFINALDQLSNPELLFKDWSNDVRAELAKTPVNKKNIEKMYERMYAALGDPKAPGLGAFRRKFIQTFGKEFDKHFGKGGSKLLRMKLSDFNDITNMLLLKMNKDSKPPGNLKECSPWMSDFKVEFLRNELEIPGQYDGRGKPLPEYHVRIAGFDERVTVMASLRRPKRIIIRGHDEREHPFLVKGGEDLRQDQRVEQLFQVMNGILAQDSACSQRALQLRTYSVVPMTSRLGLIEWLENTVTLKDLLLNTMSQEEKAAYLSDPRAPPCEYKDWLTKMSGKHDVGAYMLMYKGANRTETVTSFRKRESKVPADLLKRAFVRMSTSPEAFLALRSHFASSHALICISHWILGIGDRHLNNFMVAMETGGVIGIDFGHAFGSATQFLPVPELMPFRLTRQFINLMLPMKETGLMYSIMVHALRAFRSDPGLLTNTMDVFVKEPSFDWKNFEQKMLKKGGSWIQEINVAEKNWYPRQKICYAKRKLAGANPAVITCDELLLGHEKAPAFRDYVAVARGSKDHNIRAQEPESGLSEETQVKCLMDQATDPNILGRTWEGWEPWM

| SMILES | IC50 [1] [nM] | IC50 [2] [nM] | IC50 [3] [nM] |
| --- | --- | --- | --- |
| CCS(=O)(=O)NC1=CC(C2=CC3C4=C(C=NC3CC2F)N(C)C(=O)C42CCC2)CN=C1OCCNC(C)C (stereo unspecified) [US20250268873, Compound 570] | 0.63 | 21 | 55 |
| CC(C)NCCOC1=NCC(C2=CC3C4=C(C=NC3CC2F)N(C)C(=O)C42CCC2)C=C1NS(=O)(=O)C(C)C (stereo unspecified) [US20250268873, Compound 568] | 0.79 | 18 | 54 |
